The assay deals with TNF-α (Homo sapiens, UniProt P01375). The assay is described as follows: TNF-α Induced HEK Blue Cellular Assay. It is filed as cell-based. Conditions: HEK Blue TNFα reporter cells, TNF-α 100 pg/ml, 24 hrs at 37° C., secreted alkaline phosphatase (QUANTI-Blue, 620 nm). The essentials: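 Read-out is SEAP via QUANTI-Blue absorbance at 620 nm after a 24 h, 37 °C incubation of reporter HEK Blue cells with 100 pg/ml TNF-α plus compound at final […]–0.5 nM. Percent inhibition normalised to DMSO ± stimulation; 4-parameter logistic fit gives IC50.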

What is called IC50 is the concentration that inhibits the measured activity by half. Low readings indicate greater potency, high ones weaker potency.

Sequence of TNF-α (P01375 77-233 limits assumed): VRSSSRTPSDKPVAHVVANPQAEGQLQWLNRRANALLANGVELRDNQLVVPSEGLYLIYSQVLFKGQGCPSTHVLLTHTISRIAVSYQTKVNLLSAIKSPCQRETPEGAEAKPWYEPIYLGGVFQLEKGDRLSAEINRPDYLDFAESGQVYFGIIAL

In turn, `Cc1nc2cc(F)c(-c3ccc(P(C)(C)=O)nc3)nc2c(N[C@@H](C)c2cc(F)ccc2F)c1Cl` [Example 51, 3-chloro-N-[(1S)-1-(2,5-difluorophenyl)ethyl]-6-[6-(dimethylphosphoryl)pyridin-3-yl]-7-fluoro-2-methyl-1,5-naphthyridin-4-amine] had an IC50 of at most 100 nM. Then `Cc1nc2cc(F)c(-c3ccc(P(C)(C)=O)nc3)nc2c(NC(C)c2ncccc2F)c1Cl` (stereo not shown) [Example 94, 3-chloro-6-[6-(dimethylphosphoryl)pyridin-3-yl]-7-fluoro-N-[1-(3-fluoropyridin-2-yl)ethyl]-2-methyl-1,5-naphthyridin-4-amine], with at most 1000 nM; and `CC[C@@H](Nc1c(Cl)c(C)nc2cc(F)c(-c3ccc(P(C)(C)=O)nc3)nc12)c1cc(C#N)ccc1F` [Example 20, 3-[(1R)-1-({3-chloro-6-[6-(dimethylphosphoryl)pyridin-3-yl]-7-fluoro-2-methyl-1,5-naphthyridin-4-yl}amino)propyl]-4-fluorobenzonitrile], with at most 100 nM; and `COP(=O)(O)c1ccc(-c2nc3c(N[C@H](C)c4cc(C#N)ccc4F)c(Cl)c(C)nc3cc2F)cn1` [Example 21, ammonium methyl 5-(7-chloro-8-{[(1R)-1-(5-cyano-2-fluorophenyl)ethyl]amino}-3-fluoro-6-methyl-1,5-naphthyridin-2-yl)pyridin-2-ylphosphonate], with at most 1000 nM.

Compound `Cc1nc2cc(F)c(-c3ccc(OCP(C)(C)=O)nc3)cc2c(N[C@H](C)c2ccccc2F)c1Cl` [Example 105, 3-chloro-6-{6-[(dimethylphosphoryl)methoxy]pyridin-3-yl}-7-fluoro-N-[(1R)-1-(2-fluorophenyl)ethyl]-2-methylquinolin-4-amine] showed a half-inhibitory concentration (IC50) of at most 1000 nM. Then `CCP(=O)(CC)c1ccc(-c2nc3c(N[C@H](C)c4cc(C#N)ccc4F)c(Cl)c(C)nc3cc2F)cn1` [Example 42, 3-[(1R)-1-({3-chloro-6-[6-(diethylphosphoryl)pyridin-3-yl]-7-fluoro-2-methyl-1,5-naphthyridin-4-yl}amino)ethyl]-4-fluorobenzonitrile], with at most 100 nM; and `Cc1nc2cc(F)c(-c3ccc(P(C)(C)=O)nc3)nc2c(N[C@H](c2cc(C#N)ccc2F)C(F)F)c1Cl` [Example 35, (R)-3-(1-((3-chloro-6-(6-(dimethylphosphoryl)pyridin-3-yl)-7-fluoro-2-methyl-1,5-naphthyridin-4-yl)amino)-2,2-difluoroethyl)-4-fluorobenzonitrile], with at most 1000 nM; and `CC[C@@H](Nc1c(Cl)c(C)nc2cc(F)c(-c3ccc(P(C)(C)=O)nc3)nc12)c1cccc(F)c1F` [Example 95, (R)-(5-(7-chloro-8-((1-(2,3-difluorophenyl)propyl)amino)-3-fluoro-6-methyl-1,5-naphthyridin-2-yl)pyridin-2-yl)dimethylphosphine oxide], with at most 100 nM.

Consider `Cc1nc2cc(F)c(-c3ccc(P(C)(C)=O)nc3)cc2c(N[C@H](C)c2ccccc2F)c1Cl` [Example 19, 3-chloro-6-[6-(dimethylphosphoryl)pyridin-3-yl]-7-fluoro-N-[(1R)-1-(2-fluorophenyl)ethyl]-2-methylquinolin-4-amine], for which the half-maximal inhibitory concentration (IC50) was at most 100 nM.

With `CC[C@H](Nc1c(Cl)c(C)nc2cc(F)c(-c3cnc(P(C)(C)=O)nc3)nc12)c1cc(C#N)ccc1F` [Example 30, 3-[(1S)-1-({3-chloro-6-[2-(dimethylphosphoryl)pyrimidin-5-yl]-7-fluoro-2-methyl-1,5-naphthyridin-4-yl}amino)propyl]-4-fluorobenzonitrile], the IC50 was at most 100 nM. With `CC[C@@H](Nc1c(Cl)c(C)nc2cc(F)c(-c3cnc(OCP(C)(C)=O)nc3)nc12)c1cccc(F)c1F` [Example 125, 3-chloro-N-[(1R)-1-(2,3-difluorophenyl)propyl]-6-{2-[(dimethylphosphoryl)methoxy]pyrimidin-5-yl}-7-fluoro-2-methyl-1,5-naphthyridin-4-amine] the figure was at most 1000 nM; with `CC[C@@H](Nc1c(Cl)c(C)nc2cc(F)c(-c3cnc(P(C)(C)=O)nc3)nc12)c1cccc(C#N)c1` [Example 47, 3-[(1R)-1-({3-chloro-6-[2-(dimethylphosphoryl)pyrimidin-5-yl]-7-fluoro-2-methyl-1,5-naphthyridin-4-yl}amino)propyl]benzonitrile], at most 1000 nM; with `CCOP(=O)(OCC)c1ccc(-c2nc3c(N[C@H](C)c4cc(C#N)ccc4F)c(Cl)c(C)nc3cc2F)cn1` [Example 32, diethyl 5-(7-chloro-8-{[(1R)-1-(5-cyano-2-fluorophenyl)ethyl]amino}-3-fluoro-6-methyl-1,5-naphthyridin-2-yl)pyridin-2-ylphosphonate], at most 100 nM. With `Cc1nc2cc(F)c(-c3cnc(P(C)(C)=O)nc3)nc2c(N[C@@H](c2ccccc2F)C(F)(F)F)c1Cl` [Example 71, 3-chloro-6-[2-(dimethylphosphoryl)pyrimidin-5-yl]-7-fluoro-2-methyl-N-[(1S)-2,2,2-trifluoro-1-(2-fluorophenyl)ethyl]-1,5-naphthyridin-4-amine] the figure was at most 1000 nM. Then `Cc1nc2cc(F)c(-c3ccc(P(C)(C)=O)nc3)nc2c(N[C@H](C)c2ccccc2Cl)c1Cl` [Example 87, 3-chloro-N-[(1R)-1-(2-chlorophenyl)ethyl]-6-[6-(dimethylphosphoryl)pyridin-3-yl]-7-fluoro-2-methyl-1,5-naphthyridin-4-amine], with 1000 to 10000 nM; and `CC[C@@H](Nc1c(Cl)c(C)nc2cc(F)c(-c3cnc(P(C)(C)=O)nc3)nc12)c1cccc(F)c1F` [Example 113, (R)-(5-(7-chloro-8-((1-(2,3-difluorophenyl)propyl)amino)-3-fluoro-6-methyl-1,5-naphthyridin-2-yl)pyrimidin-2-yl)dimethylphosphine oxide], with at most 1000 nM; and `C#Cc1ccc(F)c([C@@H](C)Nc2c(Cl)c(C)nc3cc(F)c(-c4ccc(P(C)(C)=O)nc4)nc23)c1` [Example 98, 3-chloro-6-[6-(dimethylphosphoryl)pyridin-3-yl]-N-[(1R)-1-(5-ethynyl-2-fluorophenyl)ethyl]-7-fluoro-2-methyl-1,5-naphthyridin-4-amine], with at most 1000 nM. As for `Cc1nc2cc(F)c(-c3ccc(P(C)(C)=O)nc3)nc2c(N[C@H](c2cc(F)cc(F)c2)C2CC2)c1Cl` [Example 139, 3-chloro-N—[(S)-cyclopropyl(3,5-difluorophenyl)methyl]-6-[6-(dimethylphosphoryl)pyridin-3-yl]-7-fluoro-2-methyl-1,5-naphthyridin-4-amine], the IC50 is at most 1000 nM. Then `Cc1nc2cc(F)c(-c3cnc(P4(=O)CCCC4)nc3)nc2c(N[C@H](C)c2cc(C#N)ccc2F)c1Cl` [Example 49, 3-[(1R)-1-({3-chloro-7-fluoro-2-methyl-6-[2-(1-oxo-1lambda5-phospholan-1-yl)pyrimidin-5-yl]-1,5-naphthyridin-4-yl}amino)ethyl]-4-fluorobenzonitrile], with at most 100 nM.

`Cc1nc2cc(F)c(-c3ccc(P(C)(C)=O)nc3)nc2c(N[C@@H](C)c2c(F)cccc2F)c1Cl` [Example 54, 3-chloro-N-[(1S)-1-(2,6-difluorophenyl)ethyl]-6-[6-(dimethylphosphoryl)pyridin-3-yl]-7-fluoro-2-methyl-1,5-naphthyridin-4-amine] returned a 50% inhibitory concentration (IC50) of at most 1000 nM. In turn, `Cc1nc2cc(F)c(-c3ccc(P(C)(C)=O)nc3)nc2c(N[C@H](CO)c2ccccc2F)c1Cl` [Example 59, (2S)-2-({3-chloro-6-[6-(dimethylphosphoryl)pyridin-3-yl]-7-fluoro-2-methyl-1,5-naphthyridin-4-yl}amino)-2-(2-fluorophenyl)ethanol] gave an IC50 of 10000 to 30000 nM. Regarding `CC[C@H](Nc1c(Cl)c(C)nc2cc(F)c(-c3cnc(P(C)(C)=O)nc3)cc12)c1cccc(F)c1F` [Example 115, (S)-(5-(3-chloro-4-((1-(2,3-difluorophenyl)propyl)amino)-7-fluoro-2-methylquinolin-6-yl)pyrimidin-2-yl)dimethylphosphine oxide], the IC50 was at most 1000 nM.

`Cc1nc2cc(F)c(-c3ccc(P(C)(C)=O)nc3)nc2c(NC(c2cccc(F)c2F)C(C)(F)F)c1Cl` (stereo not shown) [Example 142, 3-chloro-N-[1-(2,3-difluorophenyl)-2,2-difluoropropyl]-6-[6-(dimethylphosphoryl)pyridin-3-yl]-7-fluoro-2-methyl-1,5-naphthyridin-4-amine] returned a half-maximal inhibitory concentration (IC50) of 1000 to 10000 nM. With `Cc1nc2cc(F)c(-c3ccc(P(C)(C)=O)nc3)nc2c(N[C@@H](c2cccc(F)c2F)C(F)F)c1Cl` (single isomer, unassigned) [Example 145] the figure was 10000 to 30000 nM; with `Cc1nc2cc(F)c(-c3cnc(P(C)(C)=O)nc3)cc2c(N[C@H](C)c2cc(C#N)ccc2F)c1Cl` [Example 8, 3-[(1R)-1-({3-chloro-6-[2-(dimethylphosphoryl)pyrimidin-5-yl]-7-fluoro-2-methylquinolin-4-yl}amino)ethyl]-4-fluorobenzonitrile], at most 100 nM. The compound `Cc1nc2cc(F)c(-c3cnc(P(C)(C)=O)c(F)c3)nc2c(N[C@H](C)c2cc(F)cc(F)c2)c1Cl` [Example 128, 3-chloro-N-[(1R)-1-(3,5-difluorophenyl)ethyl]-6-[6-(dimethylphosphoryl)-5-fluoropyridin-3-yl]-7-fluoro-2-methyl-1,5-naphthyridin-4-amine] returned a half-maximal inhibitory concentration (IC50) of 10000 to 30000 nM. With `Cc1nc2ccc(-c3ccc(P(C)(C)=O)nc3)nc2c(N[C@H](C)c2cc(C#N)ccc2F)c1Cl` [Example 40, 3-[(1R)-1-({3-chloro-6-[6-(dimethylphosphoryl)pyridin-3-yl]-2-methyl-1,5-naphthyridin-4-yl}amino)ethyl]-4-fluorobenzonitrile] the figure was at most 100 nM. With `CC[C@H](Nc1c(Cl)c(C)nc2cc(F)c(-c3ccc(P(C)(C)=O)nc3)c(F)c12)c1ncccc1F` [Example 73, (S)-(5-(3-chloro-5,7-difluoro-4-((1-(3-fluoropyridin-2-yl)propyl)amino)-2-methylquinolin-6-yl)pyridin-2-yl)dimethylphosphine oxide] the figure was at most 1000 nM.
